Molecular target: T1, beta-secretase enzyme (BACE 1), soluble human protein (Homo sapiens, UniProt P56817)
T1 construct: soluble (transmembrane domain and cytoplasmic extension excluded) human protein; made in house
Experiment: ECL assay: homogeneous end point electrochemiluminescence assay with biotinylated BACE substrate
Format: biochemical
Conditions: pH 4.5, rt, 30 min, 10% DMSO, range bounds printed in mixed units (lower nM, upper μM)
Procedure: Enzyme inhibition may be determined as follows.
ECL Assay: A homogeneous end point electrochemiluminescence (ECL) assay is employed using a biotinylated BACE substrate. The Km of the substrate is greater than 100 μM and can not be determined due to the limit of solubility of the substrate. A typical reaction contains approximately 0.1 nM enzyme, 0.25 μM of the substrate, and buffer (50 mM NaOAc, pH 4.5, 0.1 mg/ml BSA, 0.2% CHAPS, 15 mM EDTA and 1 mM deferoxamine) in a total reaction volume of 100 μl. The reaction proceeds for 30 min and is then stopped by the addition of 25 μL of 1 M Tris-HCl, pH 8.0. The resulting enzymatic product is assayed by adding a ruthenylated antibody which specifically recognizes the C-terminal residue of the product. Streptavidin coated magnetic beads are added into the solution and the samples are subjected to M-384 (Igen Inc., Gaithersburg, Md.) analysis. Under these conditions, less than 10% of substrate is processed by BACE 1. The enzyme used in these studies is soluble (transmembrane domain and cytoplasmic extension excluded) human protein produced in a baculovirus expression system. To measure the inhibitory potency for compounds, 12 concentrations of inhibitors are prepared starting from 100 μM with three fold series dilution. Solutions of the inhibitor in DMSO are included in the reaction mixture (final DMSO concentration is 10%). […]

T1 sequence (P56817 46-457 limits assumed): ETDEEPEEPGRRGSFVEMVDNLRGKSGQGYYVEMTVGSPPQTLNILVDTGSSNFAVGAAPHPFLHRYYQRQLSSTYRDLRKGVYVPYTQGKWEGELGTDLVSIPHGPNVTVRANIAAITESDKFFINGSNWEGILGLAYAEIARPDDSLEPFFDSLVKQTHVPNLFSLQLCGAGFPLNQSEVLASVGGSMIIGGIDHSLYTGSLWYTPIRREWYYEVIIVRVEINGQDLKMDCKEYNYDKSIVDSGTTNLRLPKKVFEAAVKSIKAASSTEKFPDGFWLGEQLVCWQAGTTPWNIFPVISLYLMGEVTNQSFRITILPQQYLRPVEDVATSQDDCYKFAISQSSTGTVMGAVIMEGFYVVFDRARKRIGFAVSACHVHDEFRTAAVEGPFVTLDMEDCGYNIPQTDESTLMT

- IC50 in inhibiting the beta-secretase enzyme: 1 nM and 100000 nM
SMILES: CCc1cn2c3c(cc(-c4nnc([C@](C)(N)Cc5ccccc5)o4)cc13)N(C)S(=O)(=O)CC2 [Example 1, (2R)-2-[5-(7-ethyl-1-methyl-2,2-dioxido-3,4-dihydro-1H-[1,2,5]thiadiazepino[3,4,5-hi]indol-9-yl)-1,3,4-oxadiazol-2-yl]-1-phenylpropan-2-amine]

From US20090170830A1, “Tricyclic Beta-Secretase Inhibitors for the Treatment of Alzheimer's Disease” (priority 2005, published 2009)
